One assay deals with Leptosphaeria nodorum. Kind of assay: Leptosphaeria nodorum test (wheat)/protective. The assay is classed as in vivo. The settings on record: protective spray, application rate 100 g/ha, evaluation 10 days after inoculation. As to the method:
Leptosphaeria nodorum test (wheat)/protective Solvent: 25 parts by weight of N,N-dimethylacetamide Emulsifier: 0.6 part by weight of alkylaryl polyglycol ether To produce a suitable preparation of active compound, 1 part by weight of active compound combination is mixed with the stated amounts of solvent and emulsifier, and the concentrate is diluted with water to the desired concentration. To test for protective activity, young plants are sprayed with the preparation of active compound at the stated application rate. After the spray coating has dried on, the plants are sprayed with a spore suspension of Leptosphaeria nodorum. The plants remain in an incubation cabin at 20° C. and 100% relative atmospheric humidity for 48 hours. The plants are placed in a greenhouse at a temperature of about 15° C. and a relative atmospheric humidity of 80%. Evaluation is carried out 10 days after the inoculation. 0% means an efficacy which corresponds to that of the control, whereas an efficacy of 100% means that no infection is observed.

In a further assay the test system is Puccinia recondita. In words: Puccinia test (wheat)/curative. The assay is classed as in vivo. The settings on record: curative spray 48 hours after inoculation, application rate 25 g/ha, evaluation 10 days after inoculation. As to the method:
Puccinia test (wheat)/curative
Solvent: 25 parts by weight of N,N-dimethylacetamide
Emulsifier: 0.6 part by weight of alkylaryi polyglycol ether
To produce a suitable preparation of active compound, 1 part by weight of active compound combination is mixed with the stated amounts of solvent and emulsifier, and the concentrate is diluted with water to the desired concentration.
To test for curative activity, young plants are inoculated with a spore suspension of Puccinia recondita in a 0.1% strength aqueous agar solution. 48 hours after the inoculation, the plants are sprayed with the preparation of active compound at the stated application rate.
The plants are placed in a greenhouse at a temperature of about 20° C. and a relative atmospheric humidity of about 80% to promote the development of rust pustules.
Evaluation is carried out 10 days after the inoculation. 0% means an efficacy which corresponds to that of the control, whereas an efficacy of 100% means that no infection is observed.

In the case of `CO/N=C(/C(=O)OC)c1ccccc1CO/N=C(\C)c1cccc(C(F)(F)F)c1` [Ex. (I), 2-[α-{[(α-methyl-3-trifluoromethylbenzyl)imino]oxy}-o-tolyl]glyoxylic acid methyl ester O-methyl oxime], the results for the Efficacy in % in the assay on Leptosphaeria nodorum and with Puccinia recondita were 67% and 0%, respectively.
The corresponding values for `OC(Cc1ccccc1Cl)(Cn1nc[nH]c1=S)C1(Cl)CC1` (stereo not shown) [Ex. (II)] are 56% and 43%.

Values taken from patent publication US20060004070A1, “Fungicidal active substance combinations” (priority 2002, published 2006).
